Results on 29 compounds are retold here after US20250186437A1, “CARBOLINE COMPOUNDS AND USE THEREOF” (PTC Therapeutics, Inc., priority 2021, published 2025).

This test deals with MOLM-13 cells. Put plainly: MOLM-13 Cell Proliferation Assay (indicator of DHODH inhibition). It is filed as cell-based. Particulars: Homo sapiens, 72 Hours of culture, CellTiter-Glo, no uridine. The gist of the method: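 Low-passage MOLM-13 cells (10^4/well) in RPMI 1640 + 10% FBS exposed to compound (0.5% DMSO final) for 72 h at 37 °C, 5% CO2. Viability read by CellTiter-Glo luminescence; growth reflects de novo pyrimidine synthesis dependent on DHODH.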
A general note: Cellular ATP, detected with luciferase, serves as a proxy for viable cell number.

For orientation: IC50 means the concentration that inhibits the measured activity by half.

`Cc1ccc([C@H]2c3[nH]c4ccc(Cl)cc4c3CCN2c2ncc(F)cn2)cc1` [Compound 393, (1S)-6-chloro-2-(5-fluoropyrimidin-2-yl)-1-(4-methylphenyl)-2,3,4,9-tetrahydro-1H-pyrido[3,4-b]indole]: half-maximal inhibition (IC50) was put at 12.7 nM.
Next, `FC1(F)CN(c2ccnc(N3CCc4c([nH]c5ccc(Cl)cc45)[C@@H]3c3cnc(N4CCOCC4)nc3)n2)C1` [Compound 456, (1S)-6-chloro-2-[4-(3,3-difluoroazetidin-1-yl)pyrimidin-2-yl]-1-[2-(morpholin-4-yl)pyrimidin-5-yl]-2,3,4,9-tetrahydro-1H-pyrido[3,4-b]indole]: 17.1 nM; `Cc1cnnc(N2CCc3c([nH]c4ccc(Cl)cc34)C2c2cnc(N3CCOCC3)nc2)n1` (centres unmarked) [Compound 384, 6-chloro-2-(5-methyl-1,2,4-triazin-3-yl)-1-[2-(morpholin-4-yl)pyrimidin-5-yl]-2,3,4,9-tetrahydro-1H-pyrido[3,4-b]indole]: 25.6 nM.
Turning to `Fc1ccc(C2c3[nH]c4ccc(Cl)cc4c3CCN2c2ncc(F)cn2)cc1` (centres unmarked) [Compound 3, 6-chloro-1-(4-fluorophenyl)-2-(5-fluoropyrimidin-2-yl)-2,3,4,9-tetrahydro-1H-pyrido[3,4-b]indole], the concentration for half-maximal inhibition (IC50) was 29.6 nM. The IC50 values of the last two compounds are within 1.5-fold of each other.
Next, `Cc1ccc(C2c3[nH]c4cc(F)c(Cl)cc4c3CCN2c2ncc(Cl)cn2)cc1` (centres unmarked) [Compound 41, 6-chloro-2-(5-chloropyrimidin-2-yl)-7-fluoro-1-(4-methylphenyl)-2,3,4,9-tetrahydro-1H-pyrido[3,4-b]indole]: 19.6 nM.
Next, `FC(F)(F)c1nc(N2CCc3c([nH]c4ccc(-n5nccn5)cc34)[C@@H]2c2cnc(N3CCOCC3)nc2)nc(C(F)(F)F)n1` [Compound 516, (1S)-2-[4,6-bis(trifluoromethyl)-1,3,5-triazin-2-yl]-1-[2-(morpholin-4-yl)pyrimidin-5-yl]-6-(2H-1,2,3-triazol-2-yl)-2,3,4,9-tetrahydro-1H-pyrido[3,4-b]indole]: 1.4 nM; `Oc1cccc(C2c3[nH]c4ccc(Cl)cc4c3CCN2c2nccc(C(F)(F)F)n2)c1F` (centres unmarked) [Compound 256, 3-{6-chloro-2-[4-(trifluoromethyl)pyrimidin-2-yl]-2,3,4,9-tetrahydro-1H-pyrido[3,4-b]indol-1-yl}-2-fluorophenol]: 3.6 nM.
For `Cc1ccc([C@H]2c3[nH]c4ccc(Cl)cc4c3CCN2c2nccc(C(F)(F)F)n2)cc1` [Compound 161, (1S)-6-chloro-1-(4-methylphenyl)-2-[4-(trifluoromethyl)pyrimidin-2-yl]-2,3,4,9-tetrahydro-1H-pyrido[3,4-b]indole] the value was 1.2 nM; for `CN1CCN(c2ncc([C@H]3c4[nH]c5ccc(Cl)cc5c4CCN3c3ncnc(C(F)(F)F)n3)cn2)CC1` [Compound 488, (1S)-6-chloro-1-[2-(4-methylpiperazin-1-yl)pyrimidin-5-yl]-2-[4-(trifluoromethyl)-1,3,5-triazin-2-yl]-2,3,4,9-tetrahydro-1H-pyrido[3,4-b]indole], 5.3 nM; for `Cc1ccc(C2c3[nH]c4ccc(Cl)cc4c3CCN2c2nncc(C(F)(F)F)n2)cc1` (centres unmarked) [Compound 430, 6-chloro-1-(4-methylphenyl)-2-[5-(trifluoromethyl)-1,2,4-triazin-3-yl]-2,3,4,9-tetrahydro-1H-pyrido[3,4-b]indole], 1.8 nM.
In turn, `COc1ccc2[nH]c3c(c2c1)CCN(c1nc(C(F)(F)F)cc(C(F)(F)F)n1)[C@H]3c1ccc(C)c(F)c1F` [Compound 528, (1S)-2-[4,6-bis(trifluoromethyl)pyrimidin-2-yl]-1-(2,3-difluoro-4-methylphenyl)-6-methoxy-2,3,4,9-tetrahydro-1H-pyrido[3,4-b]indole] had an IC50 of 1.2 nM.
For `CN(C)c1nc(N2CCc3c([nH]c4ccc(Cl)cc34)[C@@H]2c2cnc(N3CCOCC3)nc2)nc(C(F)(F)F)n1` [Compound 444, 4-{(1S)-6-chloro-1-[2-(morpholin-4-yl)pyrimidin-5-yl]-1,3,4,9-tetrahydro-2H-pyrido[3,4-b]indol-2-yl}-N,N-dimethyl-6-(trifluoromethyl)-1,3,5-triazin-2-amine] the value was 5.8 nM.
Regarding `FC(F)(F)c1nc(N2CCOCC2)nc(N2CCc3c([nH]c4ccc(Cl)cc34)[C@@H]2c2cnc(N3CCOCC3)nc2)n1` [Compound 445, (1S)-6-chloro-1-[2-(morpholin-4-yl)pyrimidin-5-yl]-2-[4-(morpholin-4-yl)-6-(trifluoromethyl)-1,3,5-triazin-2-yl]-2,3,4,9-tetrahydro-1H-pyrido[3,4-b]indole], the half-maximal inhibitory concentration (IC50) is 5.2 nM.
For `FC(F)(F)c1cc(C(F)(F)F)nc(N2CCc3c([nH]c4ccc(-n5nccn5)cc34)[C@@H]2c2ccc(N3CCOCC3)nc2)n1` [Compound 485, (1S)-2-[4,6-bis(trifluoromethyl)pyrimidin-2-yl]-1-[6-(morpholin-4-yl)pyridin-3-yl]-6-(2H-1,2,3-triazol-2-yl)-2,3,4,9-tetrahydro-1H-pyrido[3,4-b]indole] the value was 0.6 nM.
On to `Cc1ncc(C2c3[nH]c4cc(F)c(Cl)cc4c3CCN2c2ncc(F)cn2)cn1` (centres unmarked) [Compound 91, 6-chloro-7-fluoro-2-(5-fluoropyrimidin-2-yl)-1-(2-methylpyrimidin-5-yl)-2,3,4,9-tetrahydro-1H-pyrido[3,4-b]indole], for which inhibition was half-maximal at 89.9 nM (IC50).
For `Fc1cnc(N2CCc3c([nH]c4ccc(Cl)c(F)c34)C2c2ccc(C(F)(F)F)cc2)nc1` (centres unmarked) [Compound 67, 6-chloro-5-fluoro-2-(5-fluoropyrimidin-2-yl)-1-[4-(trifluoromethyl)phenyl]-2,3,4,9-tetrahydro-1H-pyrido[3,4-b]indole] the value was 19.1 nM; for `Cc1ccc(C2c3[nH]c4ccc(F)cc4c3CCN2c2ncnc(C(F)(F)F)n2)c(F)c1F` (centres unmarked) [Compound 494, 1-(2,3-difluoro-4-methylphenyl)-6-fluoro-2-[4-(trifluoromethyl)-1,3,5-triazin-2-yl]-2,3,4,9-tetrahydro-1H-pyrido[3,4-b]indole], 12 nM; for `FC(F)(F)c1ccnc(N2CCc3c([nH]c4ccc(Cl)cc34)C2c2ccc(-n3ccnc3)cc2)n1` (centres unmarked) [Compound 260, 6-chloro-1-[4-(1H-imidazol-1-yl)phenyl]-2-[4-(trifluoromethyl)pyrimidin-2-yl]-2,3,4,9-tetrahydro-1H-pyrido[3,4-b]indole], 6.3 nM.
Next, `COc1ccc(C2c3[nH]c4cc(F)c(Cl)cc4c3CCN2c2ncc(F)cn2)cn1` (centres unmarked) [Compound 8, 6-chloro-7-fluoro-2-(5-fluoropyrimidin-2-yl)-1-(6-methoxypyridin-3-yl)-2,3,4,9-tetrahydro-1H-pyrido[3,4-b]indole]: 34.8 nM; `Cc1ncc(C2c3[nH]c4cc(F)c(Cl)cc4c3CCN2c2ncc(Cl)cn2)cn1` (centres unmarked) [Compound 101, 6-chloro-2-(5-chloropyrimidin-2-yl)-7-fluoro-1-(2-methylpyrimidin-5-yl)-2,3,4,9-tetrahydro-1H-pyrido[3,4-b]indole]: 110 nM; `N#Cc1ccc(C2c3[nH]c4cc(F)c(Cl)cc4c3CCN2c2nccc(Br)n2)cc1` (centres unmarked) [Compound 69, 4-[2-(4-bromopyrimidin-2-yl)-6-chloro-7-fluoro-2,3,4,9-tetrahydro-1H-pyrido[3,4-b]indol-1-yl]benzonitrile]: 10.6 nM.
In turn, `Cc1ccc(C2c3[nH]c4cc(F)c(Cl)cc4c3CCN2c2ncc(F)cn2)c(F)c1F` (centres unmarked) [Compound 138, 6-chloro-1-(2,3-difluoro-4-methylphenyl)-7-fluoro-2-(5-fluoropyrimidin-2-yl)-2,3,4,9-tetrahydro-1H-pyrido[3,4-b]indole] gave a 50% inhibitory concentration (IC50) of 3.5 nM.
As to `Cc1nc(C)nc(N2CCc3c([nH]c4ccc(Cl)cc34)C2c2cnc(N3CCC3)nc2)n1` (centres unmarked) [Compound 345, 1-[2-(azetidin-1-yl)pyrimidin-5-yl]-6-chloro-2-(4,6-dimethyl-1,3,5-triazin-2-yl)-2,3,4,9-tetrahydro-1H-pyrido[3,4-b]indole], half-maximal inhibition (IC50) was put at 43.2 nM.
Next, `FC(F)(F)c1nc(N2CCOCC2)nc(N2CCc3c([nH]c4ccc(Cl)cc34)C2c2ccc(N3CCOCC3)nc2)n1` (centres unmarked) [Compound 428, 6-chloro-1-[6-(morpholin-4-yl)pyridin-3-yl]-2-[4-(morpholin-4-yl)-6-(trifluoromethyl)-1,3,5-triazin-2-yl]-2,3,4,9-tetrahydro-1H-pyrido[3,4-b]indole]: 5.2 nM.
For `Cc1nc(N2CCc3c([nH]c4cc(F)c(Cl)cc34)C2c2cccc(F)c2F)nc(C)c1F` (centres unmarked) [Compound 112, 6-chloro-1-(2,3-difluorophenyl)-7-fluoro-2-(5-fluoro-4,6-dimethylpyrimidin-2-yl)-2,3,4,9-tetrahydro-1H-pyrido[3,4-b]indole] the value was 3.8 nM; for `Cc1nc(N2CCc3c([nH]c4ccc(Cl)cc34)C2c2cnc(N3CCOCC3)nc2)nc(C)c1F` (centres unmarked) [Compound 368, 6-chloro-2-(5-fluoro-4,6-dimethylpyrimidin-2-yl)-1-[2-(morpholin-4-yl)pyrimidin-5-yl]-2,3,4,9-tetrahydro-1H-pyrido[3,4-b]indole], 7.9 nM.
Next, `Cc1ccc([C@H]2c3[nH]c4ccc(Cl)cc4c3CCN2c2nc(C#N)cc(C#N)n2)cc1` [Compound 397, 2-[(1S)-6-chloro-1-(4-methylphenyl)-1,3,4,9-tetrahydro-2H-pyrido[3,4-b]indol-2-yl]pyrimidine-4,6-dicarbonitrile]: 2.4 nM.
`Cc1ccc(C2c3[nH]c4cc(F)c(Cl)cc4c3CCN2c2nccc(C#N)n2)c(F)c1F` (centres unmarked) [Compound 141, 2-[6-chloro-1-(2,3-difluoro-4-methylphenyl)-7-fluoro-1,3,4,9-tetrahydro-2H-pyrido[3,4-b]indol-2-yl]pyrimidine-4-carbonitrile]: the 50% inhibitory concentration (IC50) stood at 8.7 nM.
Next, `Cc1cc(C)nc(N2CCc3c([nH]c4cc(F)c(Cl)cc34)C2c2ccc(/C=C/CCO)cc2)n1` (centres unmarked) [Compound 244, (3E)-4-{4-[6-chloro-2-(4,6-dimethylpyrimidin-2-yl)-7-fluoro-2,3,4,9-tetrahydro-1H-pyrido[3,4-b]indol-1-yl]phenyl}but-3-en-1-ol]: 2.8 nM.
